Measurements reported in PubChem BioAssay (NCI).
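Exposure lasted 48 hours, with cells grown in 96-well plates and compounds tested at five concentrations. TGI denotes the concentration required for complete inhibition of growth.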

Tests used:
Experiment in all cases: NCI tumour cell line growth inhibition, 48 h
[1] = test system: XF 498 CNS
[2] = test system: SR leukemia
[3] = test system: M14 melanoma
[4] = test system: OVCAR-3 ovarian
[5] = test system: SK-OV-3 ovarian
[6] = test system: IGROV1 ovarian
[7] = test system: SF-295 CNS
[8] = test system: OVCAR-4 ovarian
[9] = test system: 786-0 renal
[10] = test system: DMS 114 small cell lung
[11] = test system: K-562 leukemia
[12] = test system: SNB-75 CNS
[13] = test system: SK-MEL-5 melanoma
[14] = test system: CCRF-CEM leukemia
[15] = test system: RPMI-8226 leukemia
[16] = test system: U251 CNS
[17] = test system: DMS 273 small cell lung
[18] = test system: KM20L2 colon
[19] = test system: NCI-H522 lung
[20] = test system: SNB-19 CNS
[21] = test system: HOP-92 NSCLC
[22] = test system: TK-10 renal
[23] = test system: A549 NSCLC
[24] = test system: CAKI-1 renal
[25] = test system: OVCAR-8 ovarian
[26] = test system: SF-268 CNS
[27] = test system: SW-620 colon
[28] = test system: UO-31 renal
[29] = test system: HOP-62 NSCLC
[30] = test system: HCT-15 colon
[31] = test system: A498 renal
[32] = test system: HT29 colon
[33] = test system: SK-MEL-28 melanoma
[34] = test system: SN12C renal
[35] = test system: M19-MEL melanoma
[36] = test system: UACC-257 melanoma
[37] = test system: NCI-H460 lung
[38] = test system: KM12 colon
[39] = test system: UACC-62 melanoma
[40] = test system: ACHN renal
[41] = test system: LXFL 529 NSCLC
[42] = test system: HCT-116 colon
[43] = test system: RXF-631 renal
[44] = test system: OVCAR-5 ovarian
[45] = test system: DLD-1 colon
[46] = test system: HOP-18 NSCLC
[47] = test system: HCC-2998 colon
[48] = test system: NCI-H23 lung
[49] = test system: MOLT-4 leukemia
[50] = test system: SNB-78 CNS
[51] = test system: HL-60(TB) leukemia
[52] = test system: EKVX NSCLC
[53] = test system: SF-539 CNS

## c1ccc(N2CCN(CCN3CCc4c([nH]c5ccccc45)C3c3cccnc3)CC2)cc1 (stereo not drawn)
[1]
  TGI: > 100 µM
[2]
  TGI: > 100 µM
[3]
  TGI: > 100 µM
[4]
  TGI: > 100 µM
[5]
  TGI: 95.2 µM
[6]
  TGI: > 100 µM
[7]
  TGI: > 100 µM
[8]
  TGI: > 100 µM
[9]
  TGI: > 100 µM
[10]
  TGI: > 100 µM
[11]
  TGI: > 100 µM
[12]
  TGI: 9.7 µM
[13]
  TGI: > 100 µM
[14]
  TGI: > 100 µM
[15]
  TGI: > 100 µM
[16]
  TGI: > 100 µM
[17]
  TGI: > 100 µM
[18]
  TGI: > 100 µM
[19]
  TGI: > 100 µM
[20]
  TGI: > 100 µM
[21]
  TGI: 92.5 µM
[22]
  TGI: > 100 µM
[23]
  TGI: > 100 µM
[24]
  TGI: > 100 µM
[25]
  TGI: > 100 µM
[26]
  TGI: > 100 µM
[27]
  TGI: > 100 µM
[28]
  TGI: > 100 µM
[29]
  TGI: > 100 µM
[30]
  TGI: > 100 µM
[31]
  TGI: > 100 µM
[32]
  TGI: > 100 µM
[33]
  TGI: > 100 µM
[34]
  TGI: > 100 µM
[35]
  TGI: > 100 µM
[36]
  TGI: > 100 µM
[37]
  TGI: > 100 µM
[38]
  TGI: > 100 µM
[39]
  TGI: > 100 µM
[40]
  TGI: > 100 µM
[41]
  TGI: > 100 µM
[42]
  TGI: > 100 µM
[43]
  TGI: > 100 µM
[44]
  TGI: > 100 µM
[45]
  TGI: > 100 µM
[46]
  TGI: > 100 µM
[47]
  TGI: > 100 µM
[48]
  TGI: > 100 µM
[49]
  TGI: > 100 µM
[50]
  TGI: > 100 µM
[51]
  TGI: > 100 µM
[52]
  TGI: > 100 µM
[53]
  TGI: > 100 µM
